From US20220402901A1 (Bial - R&D Investments, S.A., priority 2019, published 2022)
In brackets after ≈: the same amount, converted by molar mass.

Key:
[1] = target: T1, Human acid ceramidase (hACR) (Homo sapiens, UniProt Q13510); test: Acid ceramidase biochemical fluorescent assay (cell lysates overexpressing acid ceramidase, substrate Rbm14-12); details: 10 μg lysate protein, 1 hr preincubation at RT, pH 4.5, Rbm14-12 6.3 μM
T1 construct: expressed in transfected cells; lysates of cells overexpressing acid ceramidase
T1 sequence (Q13510 22-395): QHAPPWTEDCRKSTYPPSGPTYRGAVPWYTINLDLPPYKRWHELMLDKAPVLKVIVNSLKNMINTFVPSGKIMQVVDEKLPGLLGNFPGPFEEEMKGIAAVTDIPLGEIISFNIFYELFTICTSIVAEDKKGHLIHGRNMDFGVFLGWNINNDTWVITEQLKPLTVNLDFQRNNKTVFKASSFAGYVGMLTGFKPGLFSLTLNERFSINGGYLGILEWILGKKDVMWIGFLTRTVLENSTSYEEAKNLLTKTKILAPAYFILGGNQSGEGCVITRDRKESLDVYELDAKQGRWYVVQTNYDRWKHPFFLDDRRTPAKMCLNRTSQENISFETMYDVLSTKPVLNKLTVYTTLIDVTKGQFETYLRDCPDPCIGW
Procedure: The ability of exemplary compounds to inhibit acid ceramidase was measured.
Cell lysates overexpressing acid ceramidase were used as the enzyme source for compound potency determination in a biochemical fluorescent assay. Briefly, compounds were preincubated with 10 μg protein of cell lysates in a dose-response manner for 1 hr at RT in the assay buffer containing 25 mM NaAC and 100 mM NaCl, pH 4.5. The reaction was initiated by the addition of substrate Rbm14-12 at a final concentration of 6.3 μM. The reaction was run at RT for 1 hr before it was stopped by the addition of the stopping buffer containing 20% methanol (v/v), 1 mg/ml NaIO4, 0.1 M glycine, pH 10.6. The samples were incubated with the stopping buffer at RT for 1 hr to allow the fluorescent product to be formed. Finally the plate was read with SpectraMax i3 plate reader (Molecular Devices) at ex360 nm and em446 nm. Data were collected and used to determine the IC50 values of compounds by curve fitting to the four-parameter inhibition equation.
The symbol “A” indicates inhibition of less than 0.2 μM; the symbol “B” indicates inhibition in the range of 0.2 μM up to 1 μM; and the symbol “C” indicates inhibition of greater than 1 μM.

[2] = Compound solubility in water; assay type: physicochemical; details: read-out: Solubility in H2O

Compound	IC50 [1] [nM]	solubility [2] [µM]
Cn1c(=O)oc2cc(N3CCC4(CCN(C(=O)NCCCCc5ccccc5)CC4)CC3)ccc21 [Example 71, 9-(3-Methyl-2-oxo-1,3-benzoxazol-6-yl)-N-(4-phenylbutyl)-3,9-diazaspiro[5.5]undecane-3-carboxamide]	> 1000	
CCCCCNC(=O)N1CCC(c2ccc3c(c2)oc(=O)n3C)CC1(C)C (stereo not shown) [Example 28, 2,2-Dimethyl-4-(3-methyl-2-oxo-1,3-benzoxazol-6-yl)-N-pentylpiperidine-1-carboxamide]	< 200	1.7 (≈ 0.635 µg/mL)
CC1(C)CC(c2ccc3[nH]c(=O)oc3c2)CCN1C(=O)NCCCCc1ccccc1 (stereo not shown) [Example 23, 2,2-Dimethyl-4-(2-oxo-3H-1,3-benzoxazol-6-yl)-N-(4-phenylbutyl)piperidine-1-carboxamide]	< 200	
Cn1c(=O)oc2cc(C3CCN(C(=O)NCCCc4ccccc4)C(C)(C)C3)ccc21 (stereo not shown) [Example 26, 2,2-Dimethyl-4-(3-methyl-2-oxo-1,3-benzoxazol-6-yl)-N-(3-phenylpropyl)piperidine-1-carboxamide]	< 200	5.8 (≈ 2.44 µg/mL)
CCOCCNC(=O)N1CCN(c2ccc3c(c2)oc(=O)n3C)CC1(C)C [Example 55, N-(2-Ethoxyethyl)-2,2-dimethyl-4-(3-methyl-2-oxo-1,3-benzoxazol-6-yl)piperazine-1 carboxamide]	> 1000	
Cn1c(=O)oc2cc(C3CCCN3C(=O)NCCCCc3ccccc3)ccc21 (stereo not shown) [Example 44, 2-(3-Methyl-2-oxo-1,3-benzoxazol-6-yl)-N-(4-phenylbutyl)pyrrolidine-1-carboxamide]	> 1000	
Cn1c(=O)oc2cc(C3=CCCN(C(=O)NCCCCc4ccccc4)C3)ccc21 [Example 15, 5-(3-methyl-2-oxo-1,3-benzoxazol-6-yl)-N-(4-phenylbutyl)-3,6-dihydro-2H-pyridine-1-carboxamide]	200 to 1000	
O=C(NCCCCc1ccccc1)N1CCCCC1c1ccc2[nH]c(=O)oc2c1 (stereo not shown) [Example 36, 2-(2-Oxo-3H-1,3-benzoxazol-6-yl)-N-(4-phenylbutyl)piperidine-1-carboxamide]	> 1000	
CCCCCNC(=O)N1CCCC(c2ccc3c(c2)oc(=O)n3C)C1 (stereo not shown) [Example 13, 3-(3-Methy-2-oxo-1,3-benzoxazol-6-yl)-N-pentyl-piperidine-1-carboxamide]	> 1000	
Cn1c(=O)oc2cc(N3C[C@H]4CN(C(=O)NCCCCc5ccccc5)C[C@H]4C3)ccc21 [Example 66, (3aS,6aR)- and (3aR,6aS)-2-(3-Methyl-2-oxo-1,3-benzoxazol-6-yl)-N-(4-phenylbutyl)-1,3,3a,4,6,6a-hexahydropyrrolo[3,4-c]pyrrole-5-carboxamide]	< 200	
Cn1c(=O)oc2cc(C3CCN(C(=O)NCCCCc4ccccc4)CC3)ccc21 [Example 2, 4-(3-Methyl-2-oxo-1,3-benzoxazol-6-yl)-N-(4-phenylbutyl)piperidine-1-carboxamide]	> 1000	
Cn1c(=O)oc2cc(C3CCN(C(=O)NC4CCCCC4)CC3)ccc21 [Example 5, N-Cyclohexyl-4-(3-methyl-2-oxo-1,3-benzoxazol-6-yl)piperidine-1-carboxamide]	> 1000	
Cn1c(=O)oc2cc(N3CCN(C(=O)NCCCCc4ccccc4)C4(CC4)C3)ccc21 [Example 60, 7-(3-Methyl-2-oxo-1,3-benzoxazol-6-yl)-N-(4-phenylbutyl)-4,7-diazaspiro[2.5]octane-4-carboxamide]	> 1000	
C[C@@H]1CC(c2ccc3c(c2)oc(=O)n3C)CCN1C(=O)NCCc1ccccc1 (mixture of isomers) [Example 18, (2R)-2-Methyl-4-(3-methyl-2-oxo-1,3-benzoxazol-6-yl)-N-(2-phenylethyl)piperidine-1-carboxamide]	200 to 1000	
CC(C)CNC(=O)N1CCC(c2ccc3c(c2)oc(=O)n3C)C[C@H]1C (mixture of isomers) [Example 19, N-iso-Butyl (2R)-methyl-4-(3-methyl-2-oxo-1,3-benzoxazol-6-yl)piperidine-1-carboxamide]	> 1000	
O=C(NCCCCc1ccccc1)N1CCCC(c2ccc3[nH]c(=O)oc3c2)C1 (stereo not shown) [Example 11, 3-(2-Oxo-3H-1,3-benzoxazol-6-yl)-N-(4-phenylbutyl)piperidine-1-carboxamide]	> 1000	

Compound	IC50 [1] [nM]	solubility [2] [µM]
C[C@H]1CN(c2ccc3c(c2)oc(=O)n3C)CCN1C(=O)NCCCCc1ccccc1 [Example 49, (2S)-2-Methyl-4-(3-methyl-2-oxo-1,3-benzoxazol-6-yl)-N-(4-phenylbutyl)piperazine-1-carboxamide]	200 to 1000	
Cn1c(=O)oc2cc(N3CC4(CCN(C(=O)NCCCCc5ccccc5)CC4)C3)ccc21 [Example 70, 2-(3-Methyl-2-oxo-1,3-benzoxazol-6-yl)-N-(4-phenylbutyl)-2,7-diazaspiro[3.5]nonane-7-carboxamide]	> 1000	
Cn1c(=O)oc2cc(N3CCC4(CC3)CN(C(=O)NCCCCc3ccccc3)C4)ccc21 [Example 68, 7-(3-methyl-2-oxo-1,3-benzoxazol-6-yl)-N-(4-phenylbutyl)-2,7-diazaspiro[3.5]nonane-2-carboxamide]	> 1000	
Cn1c(=O)oc2cc(C3CCN(C(=O)NCCCCc4ccccc4)C4(COC4)C3)ccc21 (stereo not shown) [Example 34, 8-(3-Methyl-2-oxo-1,3-benzoxazol-6-yl)-N-(4-phenylbutyl)-2-oxa-5-azaspiro[3.5]nonane-5-carboxamide]	> 1000	
Cn1c(=O)oc2cc(N3CC4(COC4)N(C(=O)NCCCCc4ccccc4)CC3=O)ccc21 [Example 62, 8-(3-Methyl-2-oxo-1,3-benzoxazol-6-yl)-7-oxo-N-(4-phenylbutyl)-2-oxa-5,8-diazaspiro[3.5]nonane-5-carboxamide]	200 to 1000	
O=C(NCCCCc1ccccc1)N1CC2(CCN(c3ccc4[nH]c(=O)oc4c3)CC2)C1 [Example 67, 7-(2-Oxo-3H-1,3-benzoxazol-6-yl)-N-(4-phenylbutyl)-2,7-diazaspiro[3.5]nonane-2-carboxamide]	> 1000	
COCCCNC(=O)N1CCN(c2ccc3c(c2)oc(=O)n3C)CC1(C)C [Example 56, N-(3-Methoxypropyl)-2,2-dimethyl-4-(3-methyl-2-oxo-1,3-benzoxazol-6-yl)piperazine-1-carboxamide]	> 1000	
CN(C)CCn1c(=O)oc2cc(C3CCN(C(=O)NCCCCc4ccccc4)C(C)(C)C3)ccc21 (stereo not shown) [Example 32, 4-[3-[2-(Dimethylamino)ethyl]-2-oxo-1,3-benzoxazol-6-yl]-2,2-dimethyl-N-(4-phenylbutyl)piperidine-1-carboxamide]	< 200	
COCCCNC(=O)N1CCC(c2ccc3c(c2)oc(=O)n3C)CC1(C)C (stereo not shown) [Example 30, N-(3-methoxypropyl)-2,2-dimethyl-4-(3-methyl-2-oxo-1,3-benzoxazol-6-yl)piperidine-1-carboxamide]	> 1000	
Cn1c(=O)oc2cc(C3COCCN3C(=O)NCCCCc3ccccc3)ccc21 (stereo not shown) [Example 38, 3-(3-Methyl-2-oxo-1,3-benzoxazol-6-yl)-N-(4-phenylbutyl)morpholine-4-carboxamide]	> 1000	
O=C(NCCCCc1ccccc1)N1CCC2(CC1)CN(c1ccc3[nH]c(=O)oc3c1)C2 [Example 69, 2-(2-Oxo-3H-1,3-benzoxazol-6-yl)-N-(4-phenylbutyl)-2,7-diazaspiro[3.5]nonane-7-carboxamide]	> 1000	
CCOCCNC(=O)N1CCCC(c2ccc3c(c2)oc(=O)n3C)C1 (stereo not shown) [Example 14, N-(2-Ethoxyethyl)-3-(3-methyl-2-oxo-1,3-benzoxazol-6-yl)piperidine-1-carboxamide]	> 1000	
O=C(NCCCCc1ccccc1)N1CCN(c2ccc3[nH]c(=O)oc3c2)CC1 [Example 45, 4-(2-Oxo-3H-1,3-benzoxazol-6-yl)-N-(4-phenylbutyl)piperazine-1-carboxamide]	> 1000	
Cn1c(=O)oc2cc(N3CC4CCC(C3)N4C(=O)NCCCCc3ccccc3)ccc21 [Example 61, 3-(3-Methyl-2-oxo-1,3-benzoxazol-6-yl)-N-(4-phenylbutyl)-3,8-diazabicyclo[3.2.1]octane-8-carboxamide]	> 1000	
C[C@@H]1CC(c2ccc3c(c2)oc(=O)n3C)CCN1C(=O)NCCCCc1ccccc1 (mixture of isomers) [Example 17, (2R)-2-Methyl-4-(3-methyl-2-oxo-1,3-benzoxazol-6-yl)-N-(4-phenylbutyl)piperidine-1-carboxamide]	< 200	
Cn1c(=O)oc2cc(C3CCN(C(=O)NCCC4CC4)CC3)ccc21 [Example 4, N-(2-Cyclopropylethyl)-4-(3-methyl-2-oxo-1,3-benzoxazol-6-yl)piperidine-1-carboxamide]	> 1000	
